Results as given in patent US10683269B2 (MISSION THERAPEUTICS LIMITED, priority 2016, dated 2020).

target: T1, USP7 (Homo sapiens, UniProt Q93009); experiment: USP7 biochemical IC50 assay (fluorescence polarisation, TAMRA labelled peptide linked to ubiquitin via an iso-peptide bond); conditions: 30 min pre-incubation of enzyme and compound, read after 2 hr incubation at room temperature, read-out: IC50 range
T1 construct: The USP7 construct was PCR amplified and cloned into a pFLAG-CMV-6a vector (Sigma-Aldrich) with an N-terminal FLAG tag; made in house; host or cells: HEK293T
T1 sequence (Q93009 whole entry): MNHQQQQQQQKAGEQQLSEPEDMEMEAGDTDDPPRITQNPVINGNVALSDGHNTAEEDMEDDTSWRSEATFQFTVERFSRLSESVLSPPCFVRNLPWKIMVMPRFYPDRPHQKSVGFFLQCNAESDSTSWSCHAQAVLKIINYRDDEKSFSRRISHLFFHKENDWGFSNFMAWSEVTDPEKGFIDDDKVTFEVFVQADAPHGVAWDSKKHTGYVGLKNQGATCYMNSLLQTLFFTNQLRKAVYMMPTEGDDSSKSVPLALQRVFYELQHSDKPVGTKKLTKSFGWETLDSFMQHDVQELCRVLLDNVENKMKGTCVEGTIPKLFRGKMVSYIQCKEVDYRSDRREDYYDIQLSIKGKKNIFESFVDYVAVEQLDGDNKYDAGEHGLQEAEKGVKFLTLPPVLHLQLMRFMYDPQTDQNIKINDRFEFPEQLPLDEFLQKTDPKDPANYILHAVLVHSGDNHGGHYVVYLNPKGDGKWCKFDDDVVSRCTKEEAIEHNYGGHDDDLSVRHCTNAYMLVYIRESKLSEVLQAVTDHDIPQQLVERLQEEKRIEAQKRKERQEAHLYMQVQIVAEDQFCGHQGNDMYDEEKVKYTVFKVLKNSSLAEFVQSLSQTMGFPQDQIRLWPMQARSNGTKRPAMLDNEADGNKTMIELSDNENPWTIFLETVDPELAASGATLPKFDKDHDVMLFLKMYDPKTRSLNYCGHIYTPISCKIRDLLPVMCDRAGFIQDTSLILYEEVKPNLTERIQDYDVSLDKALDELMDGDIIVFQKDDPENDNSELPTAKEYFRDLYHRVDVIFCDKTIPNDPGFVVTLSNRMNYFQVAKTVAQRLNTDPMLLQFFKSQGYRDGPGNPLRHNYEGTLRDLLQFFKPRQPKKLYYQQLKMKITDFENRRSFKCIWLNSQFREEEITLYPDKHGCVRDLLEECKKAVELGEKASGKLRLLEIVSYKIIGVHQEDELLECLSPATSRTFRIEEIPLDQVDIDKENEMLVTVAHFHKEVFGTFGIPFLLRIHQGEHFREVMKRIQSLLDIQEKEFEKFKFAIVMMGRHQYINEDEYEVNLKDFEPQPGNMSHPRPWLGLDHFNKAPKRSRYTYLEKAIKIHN
Summary of the method: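 Fluorescence polarisation at 540 nm excitation/590 nm emission, read immediately and after 2 hr at room temperature, following addition of 50 nM TAMRA-labelled iso-peptide ubiquitin substrate.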

IC50 [µM]	SMILES
1 to 10	CS(=O)(=O)c1ccccc1-c1cccc2c1CN(C#N)C2 [Example 162, 4-(2-(methylsulfonyl)phenyl)isoindoline-2-carbonitrile]
1 to 10	CN1CCC[C@@H](C(=O)Nc2cc3c(c(-c4ccncc4)c2)CN(C#N)C3)C1 [Example 163, (R)-N-(2-cyano-7-(pyridin-4-yl)isoindolin-5-yl)-1-methylpiperidine-3-carboxamide]
1 to 10	CN1CCC[C@@H](C(=O)Nc2cc3c(c(-c4cccnc4)c2)CN(C#N)C3)C1 [Example 164, (R)-N-(2-cyano-7-(pyridin-3-yl)isoindolin-5-yl)-1-methylpiperidine-3-carboxamide]
1 to 10	N#CN1Cc2cccc(-c3cccc4c3NC(=O)C4)c2C1 [Example 165, 4-(2-oxoindolin-7-yl)isoindoline-2-carbonitrile]
1 to 10	N#Cc1ccccc1-c1cccc2c1CN(C#N)C2 [Example 166, 4-(2-cyanophenyl)isoindoline-2-carbonitrile]
1 to 10	N#Cc1cc(F)ccc1-c1cccc2c1CN(C#N)C2 [Example 167, 4-(2-cyano-4-fluorophenyl)isoindoline-2-carbonitrile]
1 to 10	N#Cc1cccc(F)c1-c1cccc2c1CN(C#N)C2 [Example 168, 4-(2-cyano-6-fluorophenyl)isoindoline-2-carbonitrile]
1 to 10	N#Cc1cc(Cl)ccc1-c1cccc2c1CN(C#N)C2 [Example 169, 4-(4-chloro-2-cyanophenyl)isoindoline-2-carbonitrile]
1 to 10	COc1cccc(-c2cccc3c2CN(C#N)C3)c1C#N [Example 170, 4-(2-cyano-3-methoxyphenyl)isoindoline-2-carbonitrile]
1 to 10	COc1ccc(-c2cccc3c2CN(C#N)C3)c(C#N)c1 [Example 171, 4-(2-cyano-4-methoxyphenyl)isoindoline-2-carbonitrile]
1 to 10	COc1ccc(C#N)c(-c2cccc3c2CN(C#N)C3)c1 [Example 172, 4-(2-cyano-5-methoxyphenyl)isoindoline-2-carbonitrile]
10 to 30	COc1ccc(C#N)c(-c2cccc3c2CN(C#N)C3)n1 [Example 173, 4-(3-cyano-6-methoxypyridin-2-yl)isoindoline-2-carbonitrile]
1 to 10	CN(C)S(=O)(=O)c1ccccc1-c1cccc2c1CN(C#N)C2 [Example 174, 2-(2-cyanoisoindolin-4-yl)-N,N-dimethylbenzenesulfonamide]
1 to 10	CCNS(=O)(=O)c1ccccc1-c1cccc2c1CN(C#N)C2 [Example 175, 2-(2-cyanoisoindolin-4-yl)-N-ethylbenzenesulfonamide]
1 to 10	N#Cc1ccc(-c2cccc3c2CN(C#N)C3)c2c1CCC2=O [Example 176, 4-(7-cyano-3-oxo-2,3-dihydro-1H-inden-4-yl)isoindoline-2-carbonitrile]
1 to 10	N#Cc1ccc(-c2cccc3c2CN(C#N)C3)c(C(F)(F)F)c1 [Example 177, 4-(4-cyano-2-(trifluoromethyl)phenyl)isoindoline-2-carbonitrile]
1 to 10	N#CN1Cc2cccc(-c3ccccc3S(=O)(=O)N3CCC3)c2C1 [Example 178, 4-(2-(azetidin-1-ylsulfonyl)phenyl)isoindoline-2-carbonitrile]
1 to 10	N#CN1Cc2cccc(-c3ccccc3S(=O)(=O)NCCO)c2C1 [Example 179, 2-(2-cyanoisoindolin-4-yl)-N-(2-hydroxyethyl)benzenesulfonamide]
1 to 10	N#CN1Cc2cccc(-c3ccccc3C(=O)NCCn3cnccc3=O)c2C1 [Example 180, 2-(2-cyanoisoindolin-4-yl)-N-(2-(6-oxopyrimidin-1(6H)-yl)ethyl)benzamide]
1 to 10	N#Cc1cc(-n2ccnc2)ccc1-c1cccc2c1CN(C#N)C2 [Example 181, 4-(2-cyano-4-(1H-imidazol-1-yl)phenyl)isoindoline-2-carbonitrile]

IC50 [µM]	SMILES
1 to 10	COc1cccc(-c2nnc(-c3cnn(C)c3)c3c2CN(C#N)C3)c1 [Example 182, 1-(3-methoxyphenyl)-4-(1-methyl-1H-pyrazol-4-yl)-5,7-dihydro-6H-pyrrolo[3,4-d]pyridazine-6-carbonitrile]
1 to 10	N#CN1Cc2ncnc(N3CCc4ccccc4C3)c2C1 [Example 183, 4-(3,4-dihydroisoquinolin-2(1H)-yl)-5,7-dihydro-6H-pyrrolo[3,4-c]pyrimidine-6-carbonitrile]
1 to 10	Cc1ccccc1OC1CCN(c2ncnc3c2CN(C#N)C3)CC1 [Example 184, 4-(4-(o-tolyloxy)piperidin-1-yl)-5,7-dihydro-6H-pyrrolo[3,4-d]pyrimidine-6-carbonitrile]
1 to 10	COc1ccccc1OC1CCN(c2ncnc3c2CN(C#N)C3)CC1 [Example 186, 4-(4-(2-methoxyphenoxy)piperidin-1-yl)-5,7-dihydro-6H-pyrrolo[3,4-d]pyrimidine-6-carbonitrile]
1 to 10	CC(=O)Nc1nc2c(c(-c3ccc(F)cc3)n1)CN(C#N)C2 [Example 187, N-(6-cyano-4-(4-fluorophenyl)-6,7-dihydro-5H-pyrrolo[3,4-c]pyrimidin-2-yl)acetamide]
1 to 10	CS(=O)(=O)CCNc1nc2c(c(-c3ccccc3)n1)CN(C#N)C2 [Example 188, 2-((2-(methylsulfonyl)ethyl)amino)-4-phenyl-5,7-dihydro-6H-pyrrolo[3,4-d]pyrimidine-6-carbonitrile]
10 to 30	N#CN1Cc2nc(NC3CCOCC3)nc(-c3ccccc3)c2C1 [Example 189, 4-phenyl-2-((tetrahydro-2H-pyran-4-yl)amino)-5,7-dihydro-6H-pyrrolo[3,4-d]pyrimidine-6-carbonitrile]
1 to 10	CN(CCO)c1nc2c(c(-c3ccccc3)n1)CN(C#N)C2 [Example 190, 2-((2-hydroxyethyl)(methyl)amino)-4-phenyl-5,7-dihydro-6H-pyrrolo[3,4-d]pyrimidine-6-carbonitrile]
1 to 10	CN1CCOC(CN(C)c2nc3c(c(-c4ccccc4)n2)CN(C#N)C3)C1 (centres unmarked) [Example 191, 2-(methyl((4-methylmorpholin-2-yl)methyl)amino)-4-phenyl-5,7-dihydro-6H-pyrrolo[3,4-d]pyrimidine-6-carbonitrile]
1 to 10	CN1CCOC(CNc2nc3c(c(-c4cccnc4)n2)CN(C#N)C3)C1 (centres unmarked) [Example 192, 2-(((4-methylmorpholin-2-yl)methyl)amino)-4-(pyridin-3-yl)-5,7-dihydro-6H-pyrrolo[3,4-d]pyrimidine-6-carbonitrile]
1 to 10	CN1CCOC(CNc2nc3c(c(-c4cccc(F)c4)n2)CN(C#N)C3)C1 (centres unmarked) [Example 193, 4-(3-fluorophenyl)-2-(((4-methylmorpholin-2-yl)methyl)amino)-5,7-dihydro-6H-pyrrolo[3,4-d]pyrimidine-6-carbonitrile]
1 to 10	CN1CCOC(CNc2nc3c(c(-c4ccc(F)cc4)n2)CN(C#N)C3)C1 (centres unmarked) [Example 194, 4-(4-fluorophenyl)-2-(((4-methylmorpholin-2-yl)methyl)amino)-5,7-dihydro-6H-pyrrolo[3,4-d]pyrimidine-6-carbonitrile]
1 to 10	CC(=O)Nc1cccc(-c2nc(NCC3CN(C)CCO3)nc3c2CN(C#N)C3)c1 (centres unmarked) [Example 195, N-(3-(6-cyano-2-(((4-methylmorpholin-2-yl)methyl)amino)-6,7-dihydro-5H-pyrrolo[3,4-d]pyrimidin-4-yl)phenyl)acetamide]
1 to 10	CN1CCCC(CNc2nc3c(c(N4CCc5ccccc5C4)n2)CN(C#N)C3)C1 (centres unmarked) [Example 196, 4-(3,4-dihydroisoquinolin-2(1H)-yl)-2-(((1-methylpiperidin-3-yl)methyl)amino)-5,7-dihydro-6H-pyrrolo[3,4-d]pyrimidine-6-carbonitrile]
1 to 10	CN1CCOC(CNc2nc3c(c(N4CCc5ccccc5C4)n2)CN(C#N)C3)C1 (centres unmarked) [Example 197, 4-(3,4-dihydroisoquinolin-2(1H)-yl)-2-(((4-methylmorpholin-2-yl)methyl)amino)-5,7-dihydro-6H-pyrrolo[3,4-d]pyrimidine-6-carbonitrile]
1 to 10	Cn1nccc1CNc1nc2c(c(N3CCc4ccccc4C3)n1)CN(C#N)C2 [Example 198, 4-(3,4-dihydroisoquinolin-2(1H)-yl)-2-(((1-methyl-1H-pyrazol-5-yl)methyl)amino)-5,7-dihydro-6H-pyrrolo[3,4-d]pyrimidine-6-carbonitrile]
1 to 10	N#CN1Cc2nc(N[C@H]3CC[C@H](O)CC3)nc(N3CCc4ccccc4C3)c2C1 [Example 199]
1 to 10	N#CN1Cc2nc(NCC3CCOCC3)nc(N3CCc4ccccc4C3)c2C1 [Example 200, 4-(3,4-dihydroisoquinolin-2(1H)-yl)-2-(((tetrahydro-2H-pyran-4-yl)methyl)amino)-5,7-dihydro-6H-pyrrolo[3,4-d]pyrimidine-6-carbonitrile]
1 to 10	Cn1cc(CNc2nc3c(c(N4CCc5ccccc5C4)n2)CN(C#N)C3)cn1 [Example 201, 4-(3,4-dihydroisoquinolin-2(1H)-yl)-2-(((1-methyl-1H-pyrazol-4-yl)methyl)amino)-5,7-dihydro-6H-pyrrolo[3,4-d]pyrimidine-6-carbonitrile]
1 to 10	N#CN1Cc2nc(NCCO)nc(N3CCc4ccccc4C3)c2C1 [Example 202, 4-(3,4-dihydroisoquinolin-2(1H)-yl)-2-((2-hydroxyethyl)amino)-5,7-dihydro-6H-pyrrolo[3,4-d]pyrimidine-6-carbonitrile]

same assay, conditions: IC50 range, 30 min pre-incubation of enzyme and compound, read after 2 hr incubation at room temperature

IC50 [µM]	SMILES
10 to 30	N#CN1Cc2ncnc(N3CCC(OCc4ccccc4)CC3)c2C1 [Example 185, 4-(4-(benzyloxy)piperidin-1-yl)-5,7-dihydro-6H-pyrrolo[3,4-d]pyriimidine-6-carbonitrile]
